Where two headings read alike, the source gives them in different places.
Assays:
[1] = test system: human placental GnRH receptor; test: Placental GnRH receptor binding, 125I-Buserelin label
Experimental: The newly synthesized non-mammalian GnRH analogs and other commercially available mammalian GnRH analogs were used in placental receptors binding and enzyme stability study described here. […] GnRH receptors were purified from the membrane fractions from placentas. The purification procedure for the placental GnRH receptor was performed using a modification of the method described by Bramley et al., which reference is specifically incorporated herein by reference for the purpose. Addition of enzyme inhibitors for the endogenous C-ase-1 were used as well as agents for receptor stabilization. Initially, receptor-binding assays using ^125I-Buserelin as label were performed. The competitive binding of each of the analogs was studied over a dose range of 10^−11 to 10^−6 M. Incubation was at room temperature and receptor bound label was precipitated with polyethylene glycol. Specific and non-specific binding was determined. The data was subjected to Scatchard analysis. The non-mammalian GnRH analogs' ability to bind to the placental GnRH receptor was compared to that for synthetic mammalian GnRH (SEQ ID NO: 5), Buserelin (SEQ ID NO: 10) and other mammalian analogs. […] This way, the receptor affinity for that analog could be precisely determined. Receptors from three different term placentas were used to study each of these analogs. […] Bramley T A, McPhie C A, Menzies G S 1994 Human placental gonadotropin-releasing hormone (GnRH) binding sites: 111. […] Placenta 15:733-745.
In these and additional studies, placental GnRH receptors were purified from human term placentas after homogenization in 40 mM Tris (pH 7.4) and filtered through cheesecloth, followed by an initial centrifugation at 1,000×g for 10 minutes. The resulting supernatant was, again, centrifuged at 35,000×g for 30 minutes and the membrane pellet was collected and resuspended in Tris buffer with 0.3 M sucrose. The protein concentration was determined. Membranes were stored frozen at −20 C until use. Before use, placental membranes were diluted to 5,000 μg/mL with Tris buffer containing 0.5% BSA and 50 U/mL bacitracin. […] Following incubation at room temperature for 4 hours, the bound and free hormones were separated using polyethylene glycol precipitation, followed by centrifugation. The binding affinity for each GnRH isoform or analog was calculated using the double reciprocal plot of bound versus free ligand. Each study was done using three different human term placental tissues.
Receptor assays were performed by incubating human term placental GnRH receptors with varying concentrations of GnRH or its analogs in the presence of ^125I-Buserelin. The reaction was stopped and the bound hormone precipitated with polyethylene glycol.

[2] = test system: early human placental explants; test: Placental explant perifusion, hCG release; type: cell-based
Source text: Placental tissues that are normally discarded were obtained from unidentified patients following first trimester pregnancy termination (early human placental explants). Tissue fragments, dissected of vessels and membranes, were placed in a perfusion system for study of 20 replicate chambers of the same tissue. This allows for simultaneous dose-response studies to be performed. To achieve this specific aim, explants from a given placenta were placed in 20 replicate chambers and perfused with basal medium for three hours at a rate of 6 ml/hr (dead volume of the system at 6 ml/hr is ten minutes). After three hours of equilibration, the analog was added to the basal perfusing medium. Quaduplicate chambers were made for chicken II GnRH analog (SEQ ID NO: 2) at 0, 10^−9, 10^−8, 10^−7, 10^−6 M and Buserelin (SEQ ID NO: 10) at 10^−7 M. The effluent medium of each chamber was collected after a three hour equilibration period. Two basal samples, at half hour intervals were collected, media with test substances was initiated and effluent medium collection continued for four and one half hours at thirty minute intervals. The hCG release was analyzed in each of these experiments. FIGS. 16 and 17 illustrate a typical response. […] Maximal response was observed within minutes after initiation of perfusion at 10^−8 M, with possible down regulation beginning after five hours at 10^−6 M as illustrated in FIG. 18.
In additional experiments, early gestation human placentas were perfused for six hours with medium supplemented with estradiol, progesterone, bovine serum albumin, and antibiotics (basal medium). Twenty replicate chambers were perifused with basal medium for two hours, then triplicate chambers were perifused with the medium containing either Buserelin (SEQ ID NO: 10), or 10^−9, 10^−8, 10^−7, 10^−6 M of a chicken II GnRH analog (SEQ ID NO: 2), leaving five control chambers. The eluted medium was collected at thirty minute intervals, starting one hour prior to the addition of GnRH analogs and throughout five hours of treatment. hCG released into the effluent media, as well as the production of GnRH, were measured using sensitive and specific radioimmunoassays. The release of hCG at each time point was normalized to its zero treatment release and the release throughout the treatment period and its average release was compared for various treatment regimens. These studies were repeated using tissues from three different first trimester placentas. The results of this experiment are illustrated in FIG. 20.

[3] = test system: baboon granulosa cells; test: Baboon granulosa cell culture, progesterone release; type: cell-based; settings: chicken II analog 10^−9 to 10^−6 M; Buserelin 10^−7
Source text: The biopotency of chicken II GnRH analogs (SEQ ID NO: 2) in the regulation of baboon ovarian function was studied. The effect of mammalian and chicken II GnRH analogs (SEQ ID NO: 2) on ovarian progesterone release was studied using granulosa cell cultures. The dose-related action of a stable analog of chicken II GnRH (SEQ ID NO: 2) on progesterone production was defined using baboon granulosa cell cultures. After a two hour basal study period, the medium was supplemented with either Buserilin (SEQ ID NO: 10) (10^−7) or a chicken II GnRH analog (SEQ ID NO: 2) (10^−9, 10^−8, 10^−7, 10^−6 M) leaving four control wells. […] This inhibition was sustained after 48 hours of treatment. […] In addition, the action of the analog on three different stromal and three different epithelial endometrial primary cell lines (after 3-5 passages) has been studied and PGE2 determined as indicated in FIG. 31.

[4] = biological target: placental GnRH receptor; test: Mean
Source text: Table printed on a drawing sheet, Fig. 1
The patent's description of the figure: FIG. 1. Placental Kds for Chicken II and Mammalian GnRH Analogs
First copying reader's note: Each column is one GnRH analog; the rows are Kd values in individual placentas, followed by the mean and SEM.
Where the first naming reader finds the target: passage: the affinity for the placental GnRH receptor was enhanced 2 fold

[5] = test system: chorionic peptidase-1 (C-ase-1); test: C-ase-1 enzyme activity assay, competition for degradation of GnRH
Experimental: (§1) Using the incubation system developed for the C-ase-1 activity, the degradation of each analog was tested. […] These studies were done using the C-ase-1 enzyme activity assay as described previously. […] The product formed was calculated by subtraction, and its inverse plotted against the inverse of the original substrate concentrations to determine the nature of the competition. The Ki was to be determined by plotting the inverse of the product that formed verses the inhibitor used.
(§2) The concentration of the product of the degraded GnRH was quantified by subtracting the remaining mammalian GnRH from the starting concentrations of mammalian GnRH. […] The Ks for the degradation of mammalian GnRH was calculated from the x axis intercept using Lineweaver-Burke double reciprocal plot of the concentration of the product formed versus the concentration of the substrate used.
(§3) The reaction was stopped by heating at 85° C. for 10 minutes. The remaining GnRH was determined using a specific radioimmunoassay. The formation of product, i.e., the N-terminal nonapeptide of GnRH, was calculated by subtraction and its inverse was plotted versus the inverse of the initial substrate to determine the Ks of the reaction. […] The relative potency of each analog was compared.
(§4) Using the incubation system developed for the C-ase-1 activity, the degradation of each analog was studied. […] The inverse of the product was plotted against the inverse of the original substrate concentrations to determine Ks of the competition. The Ki was determined by plotting the inverse of the product formed verses the inhibitor used.

[6] = test system: human placental GnRH receptor; test: Placental GnRH receptor binding, radiolabeled D-Arg(6)-chicken II GnRH-aza-Gly(10)-amide label; settings: versus Buserelin label
Experimental: The newly synthesized non-mammalian GnRH analogs and other commercially available mammalian GnRH analogs were used in placental receptors binding and enzyme stability study described here. On the basis of these studies, the most receptor potent and enzyme-stable analogs were chosen for further biopotency studies. GnRH receptors were purified from the membrane fractions from placentas. The purification procedure for the placental GnRH receptor was performed using a modification of the method described by Bramley et al., which reference is specifically incorporated herein by reference for the purpose. Addition of enzyme inhibitors for the endogenous C-ase-1 were used as well as agents for receptor stabilization. Initially, receptor-binding assays using ^125I-Buserelin as label were performed. The competitive binding of each of the analogs was studied over a dose range of 10^−11 to 10^−6 M. Incubation was at room temperature and receptor bound label was precipitated with polyethylene glycol. Specific and non-specific binding was determined. The data was subjected to Scatchard analysis. The non-mammalian GnRH analogs' ability to bind to the placental GnRH receptor was compared to that for synthetic mammalian GnRH (SEQ ID NO: 5), Buserelin (SEQ ID NO: 10) and other mammalian analogs. […] This way, the receptor affinity for that analog could be precisely determined. Receptors from three different term placentas were used to study each of these analogs. […] Bramley T A, McPhie C A, Menzies G S 1994 Human placental gonadotropin-releasing hormone (GnRH) binding sites: 111. Changes in GnRH binding levels with stage of gestation. Placenta 15:733-745.
In these and additional studies, placental GnRH receptors were purified from human term placentas after homogenization in 40 mM Tris (pH 7.4) and filtered through cheesecloth, followed by an initial centrifugation at 1,000×g for 10 minutes. The resulting supernatant was, again, centrifuged at 35,000×g for 30 minutes and the membrane pellet was collected and resuspended in Tris buffer with 0.3 M sucrose. The protein concentration was determined. Membranes were stored frozen at −20 C until use. Before use, placental membranes were diluted to 5,000 μg/mL with Tris buffer containing 0.5% BSA and 50 U/mL bacitracin. Placental membranes (100 μL) were used with varying concentrations of mammalian GnRH (SEQ ID NO: 5), Buserelin (SEQ ID NO: 10), chicken II GnRH (SEQ ID NO: 6), D-Arg (6)-chicken II GnRH-des-Gly (10)-ethylamide (SEQ ID NO: 2), or D-Arg (6)-chicken II GnRH-aza-Gly (10)-amide (SEQ ID NO: 2) (100 μL) and either radiolabeled Buserelin (SEQ ID NO: 10) or radiolabeled D-Arg (6)-chicken II GnRH-aza-Gly (10)-amide (SEQ ID NO: 2) (100 μL/tube and iodinated). Following incubation at room temperature for 4 hours, the bound and free hormones were separated using polyethylene glycol precipitation, followed by centrifugation. The binding affinity for each GnRH isoform or analog was calculated using the double reciprocal plot of bound versus free ligand. Each study was done using three different human term placental tissues.

[7] = test system: human term placental explants; test: Static explant culture, release of hCG, progesterone, PGE2; type: cell-based; settings: 0.25-1.00 μM, four placentas
Source text: The biological activity of the newly synthesized non-mammalian GnRH analogs was studied using a static implant culture system. This system allows for inexpensive extended activity studies. Mammalian GnRH action on the human placenta release of hCG, progesterone and prostaglandins were defined using this system. Replicate cultures were studied, thus allowing for comparison of different doses of each non-mammalian GnRH analog to mammalian GnRH (SEQ ID NO: 5), as well as direct competition assays. […] These studies were repeated using different human placentas. Siler-Khodr T M, Khodr G S, Valenzuela G, Rhode J 1986 Gonadotropin-releasing hormone effects on placental hormones during gestation: II. Progesterone, estrone, estradiol and estriol. Biol Reprod 34:255-264; Siler-Khodr T M, Khodr G S, Valenzuela G, Rhode J 1986 Gonadotropin-releasing hormone effects on placental hormones during gestation: 1 Alpha-human chorionic gonadotropin, human chorionic gonadotropin and human chorionic somatomammotropin. Biol Reprod 34:245-254; Siler-Khodr T M, Khodr G S, Valenzuela G, Harper J, Rhode J 1986 GnRH effects on placental hormones during gestation. 111 Prostaglandin E, prostaglandin F, and 13, 14-dihydro-15-keto-prostaglandin F. Biol Reprod 35:312-319.
In these and additional studies, an explant culture system was used to determine the effect of mammalian GnRH (SEQ ID NO: 5), chicken II GnRH (SEQ ID NO: 6), or the D-Arg(6)-chicken II GnRH-aza-Gly(10)-amide analog (SEQ ID NO: 2) on the release of the hCG, progesterone, and prostaglandin E2. Human term placentas were dissected free of membranes, minced into fragments of 5 mm, rinsed in medium, and a total weight of ˜100 mg (20 explants) was placed on a sterile filter paper resting on an organ culture grid such that they touched the surface of the culture medium, but were not immersed in it. The medium contained penicillin, streptomycin, and fungizone at 100 U/mL, 100 μg/mL, and 2.5 μg/mL respectively with and without varying doses of GnRH isoforms or analogs was added to each Petri dish. Triplicate chambers for each media were made and incubated at 37 C in a humidified chamber with an atmosphere of 5% CO2 and 95% air. Spent media were collected and replaced after 2 hours, 24 hours, and 48 hour of culture and stored frozen at −20° C. until assayed for hormones. HCG, progesterone, and PGE2 were measured using specific double antibody procedures as described previously. The chicken II GnRH analog (SEQ ID NO: 2) was studied using four different human term placentas, and the native chicken II GnRH isoform was also studied using one human term placenta. Gibbons J M, Mitnick M, Chieffo V 1975 In vitro biosynthesis, of TSH- and LH-releasing factors by the human placenta. Am J Obstet Gynecol 121:127-131.

[8] = test system: chorionic peptidase-1 (C-ase-1)
Experimental: as §1, §2, §3, §4

[9] = test system: baboon ovarian enzymatic activity
Experimental: In these studies the enzyme was in the ovarian extract.
In this assay, following incubation of the enzyme and GnRH, with and without the chosen analog, the reaction was stopped by heating and the remaining GnRH substrate was quantified by radioimmunoassay. The product formed is calculated by subtraction, and its inverse plotted against the inverse of the original substrate concentrations to determine the nature of the competition. The Ki was determined by plotting the inverse of the product formed versus the inhibitor used.

[10] = test system: chorionic peptidase-1 (C-ase-1); settings: neutral pH; read-out: Km for degradation by C-ase-1; cited from earlier work

SMILES | receptor activity/potency compared with GnRH ([1]; 125I-Buserelin, Example VI) | receptor binding potency compared with mammalian GnRH ([1]; Buserelin label, Example II) | hCG response ([2]; 10^−7 M) | average stimulation of hCG release, relative to control tissues ([2]; throughout five hours of perifusion) | effect on progesterone release, in words [3] | Kd [4] | degradation by / competition for C-ase-1, in words [5] | degradation/competition relative to mammalian GnRH ([5]; Example III) | Ki ([5]; competition for degradation of mammalian GnRH, Example III) | Kd ([1]; 125I-Buserelin, Example VI, read-out: Kd) | decrease of affinity when the analog is used as label [6] | effect on progesterone release [7] | effect on release of hCG [7] | degradation by / competition for C-ase-1, in words [8] | Ks for degradation by ovarian tissues [9] | Km [10] | Ks for degradation by C-ase-1 ([5]; Lineweaver-Burke plot)
CCNC(=O)[C@@H]1CCCN1C(=O)[C@H](CCCNC(=N)N)NC(=O)[C@H](CC(C)C)NC(=O)[C@@H](COC(C)(C)C)NC(=O)[C@H](Cc1ccc(O)cc1)NC(=O)[C@H](CO)NC(=O)[C@H](Cc1c[nH]c2ccccc12)NC(=O)[C@H](Cc1cnc[nH]1)NC(=O)[C@@H]1CCC(=O)N1 [Buserelin] | twice as active | three-fold more potent | small stimulation of hCG at early time points | 150% | without significant effect | 579 ± 84 nM | potent competitive inhibitors | one fourth the rate | 110 nM |  |  |  |  |  |  |  | 
CC(C)C[C@H](NC(=O)CNC(=O)[C@H](Cc1ccc(O)cc1)NC(=O)[C@H](CO)NC(=O)[C@H](Cc1c[nH]c2ccccc12)NC(=O)[C@H](Cc1cnc[nH]1)NC(=O)[C@@H]1CCC(=O)N1)C(=O)N[C@@H](CCCNC(=N)N)C(=O)N1CCC[C@H]1C(=O)NCC(N)=O [mammalian GnRH] |  |  |  |  |  |  |  |  |  | 1000 nM | 1.5 times | not affected by mammalian GnRH (SEQ ID NO: 5) in two of four placentas, but in one placenta it was significantly increased and in the other was decreased | no significant effect | actively degraded | ~30 nM | 0.01 µM | ~30 nM

Reference: patent US20050282745A1, “Non-mammalian GnRH analogs and uses thereof in regulation of fertility and pregnancy” (priority 2001, published 2005)
